According to ChEMBL document CHEMBL4651402, “Screening of ~5500 FDA-approved drugs and clinical candidates for anti-SARS-CoV-2 activity” (2021):
pIC50: −log10 of the molar value.

Tested on: SARS-CoV-2
Assay: microbe, parasite or virus in culture
Settings: Severe acute respiratory syndrome coronavirus 2, Vero C1008, 48 h; for IC50: read-out: pIC50 (converted)

Oc1cc2c(cc1O)[C@@H]1c3ccc(O)c(O)c3OC[C@]1(O)C2 [HEMATOXYLIN] was tested, and the pIC50 was < 4.70 and the IC50 was > 20 µM.

For C[N+]1(C)CCOC(O)(c2ccc(-c3ccc(C4(O)C[N+](C)(C)CCO4)cc3)cc2)C1 (stereo unspecified) [HEMICHOLINIUM-3], the pIC50 was < 4.70 and the IC50 was > 20 µM.

CC(N)CCCC(C)(C)O (stereo unspecified) [HEPTAMINOL] was tested, and the pIC50 was < 4.70 and the IC50 was > 20 µM.

With COc1ccc([C@@H]2CC(=O)c3c(O)cc(O)cc3O2)cc1O [HESPERETIN] the pIC50 was < 4.70 and the IC50 was > 20 µM.

In the case of Oc1c(Cl)cc(Cl)c(Cl)c1Cc1c(O)c(Cl)cc(Cl)c1Cl [HEXACHLOROPHENE], the pIC50 was < 4.70 and the IC50 was > 20 µM.

CC(=O)NCCCCCCNC(C)=O [HEXAMETHYLENEBISACETAMIDE] was tested, and the pIC50 was < 4.70 and the IC50 was > 20 µM.

In the case of CC[C@H](c1ccc(O)cc1)[C@@H](CC)c1ccc(O)cc1 [HEXESTROL], the pIC50 was < 4.70 and the IC50 was > 20 µM.

With CN1C(=O)NC(=O)C(C)(C2=CCCCC2)C1=O (stereo unspecified) [HEXOBARBITAL] the pIC50 was < 4.70 and the IC50 was > 20 µM.

For C[N+]1(C)CCN(CC(O)(c2ccccc2)C2CCCCC2)CC1 (stereo unspecified) [HEXOCYCLIUM], the pIC50 was < 4.70 and the IC50 was > 20 µM.

For Oc1ccc(C(O)CNCCCCCCNCC(O)c2ccc(O)c(O)c2)cc1O (stereo unspecified) [HEXOPRENALINE], the pIC50 was < 4.70 and the IC50 was > 20 µM.

CC(CNC1CCCCC1)OC(=O)c1ccccc1 (stereo unspecified) [HEXYLCAINE] was tested, and the pIC50 was < 4.70 and the IC50 was > 20 µM.

With CC(O)CC(C)(C)O (stereo unspecified) [HEXYLENE GLYCOL] the pIC50 was < 4.70 and the IC50 was > 20 µM.

With CCCCCCc1ccc(O)cc1O [HEXYLRESORCINOL] the pIC50 was < 4.70 and the IC50 was > 20 µM.

In the case of O=C(O)CNC(=O)c1ccccc1 [HIPPURIC ACID], the pIC50 was < 4.70 and the IC50 was > 20 µM.

NCCc1c[nH]cn1 [HISTAMINE] was tested, and the pIC50 was < 4.70 and the IC50 was > 20 µM.

With COc1ccc(S(=O)(=O)N(C(C)=O)c2ccccc2/C=C/c2cc[n+]([O-])cc2)cc1 [HMN-214] the pIC50 was < 4.70 and the IC50 was > 20 µM.

With CC[n+]1c(-c2ccccc2)c2cc(N)ccc2c2ccc(N)cc21 [HOMIDIUM] the pIC50 was < 4.70 and the IC50 was > 20 µM.

CC1CC(OC(=O)c2ccccc2O)CC(C)(C)C1 (stereo unspecified) [HOMOSALATE] was tested, and the pIC50 was < 4.70 and the IC50 was > 20 µM.

For CN(C)CCc1ccc(O)cc1 [HORDENINE], the pIC50 was < 4.70 and the IC50 was > 20 µM.

C/C=C1\[C@H]2C=C(C)C[C@]1(N)c1ccc(=O)[nH]c1C2 [HUPERZINE A] was tested, and the pIC50 was < 4.70 and the IC50 was > 20 µM.

CCN(CC)CCNc1ccc(CO)c2sc3ccccc3c(=O)c12 [HYCANTHONE] was tested, and the pIC50 was < 4.70 and the IC50 was > 20 µM.

With COc1ccc2c(c1OC)C(=O)O[C@@H]2[C@H]1c2cc3c(cc2CCN1C)OCO3 [HYDRASTINE] the pIC50 was < 4.70 and the IC50 was > 20 µM.

For CN1CCc2cc3c(cc2C1O)OCO3 (stereo unspecified) [HYDRASTININE], the pIC50 was < 4.70 and the IC50 was > 20 µM.

In the case of NS(=O)(=O)c1cc2c(cc1Cl)NCNS2(=O)=O [HYDROCHLOROTHIAZIDE], the pIC50 was < 4.70 and the IC50 was > 20 µM.

With COc1ccc2c3c1O[C@H]1C(=O)CC[C@H]4[C@@H](C2)N(C)CC[C@]314 [HYDROCODONE] the pIC50 was < 4.70 and the IC50 was > 20 µM.

CC(=O)OCC(=O)[C@@]1(O)CC[C@H]2[C@@H]3CCC4=CC(=O)CC[C@]4(C)[C@H]3[C@@H](O)C[C@@]21C [HYDROCORTISONE ACETATE] was tested, and the pIC50 was < 4.70 and the IC50 was > 20 µM.

In the case of C[C@]12CCC(=O)C=C1CC[C@@H]1[C@@H]2[C@@H](O)C[C@@]2(C)[C@H]1CC[C@]2(O)C(=O)CO [HYDROCORTISONE], the pIC50 was < 4.70 and the IC50 was > 20 µM.

In the case of COc1c2c(cc3c1OCO3)CCN(C)C2 [HYDROCOTARNINE], the pIC50 was < 4.70 and the IC50 was > 20 µM.

NS(=O)(=O)c1cc2c(cc1C(F)(F)F)NCNS2(=O)=O [HYDROFLUMETHIAZIDE] was tested, and the pIC50 was < 4.70 and the IC50 was > 20 µM.

Oc1ccc(O)cc1 [HYDROQUINONE] was tested, and the pIC50 was < 4.70 and the IC50 was > 20 µM.

In the case of CC(N)Cc1ccc(O)cc1 (stereo unspecified) [HYDROXYAMPHETAMINE], the pIC50 was < 4.70 and the IC50 was > 20 µM.

For C[C@]12CCC(=O)C[C@H]1CC[C@@H]1[C@@H]2CC[C@]2(C)[C@@H](C(=O)COC(=O)CCC(=O)O)CC[C@@H]12 [HYDROXYDIONE SUCCINIC ACID], the pIC50 was < 4.70 and the IC50 was > 20 µM.

With CC(C)(O)C(=O)Nc1ccc([N+](=O)[O-])c(C(F)(F)F)c1 [HYDROXYFLUTAMIDE] the pIC50 was < 4.70 and the IC50 was > 20 µM.

CCC(O)(COC(N)=O)c1ccccc1 (stereo unspecified) [HYDROXYPHENAMATE] was tested, and the pIC50 was < 4.70 and the IC50 was > 20 µM.

In the case of CC(=O)[C@@]1(O)CC[C@H]2[C@@H]3CCC4=CC(=O)CC[C@]4(C)[C@H]3CC[C@@]21C [HYDROXYPROGESTERONE], the pIC50 was < 4.70 and the IC50 was > 20 µM.

With NC(=O)NO [HYDROXYUREA] the pIC50 was < 4.70 and the IC50 was > 20 µM.

With OCCOCCN1CCN(C(c2ccccc2)c2ccc(Cl)cc2)CC1 (stereo unspecified) [HYDROXYZINE] the pIC50 was < 4.70 and the IC50 was > 20 µM.

Cc1cc(=O)oc2cc(O)ccc12 [HYMECROMONE] was tested, and the pIC50 was < 4.70 and the IC50 was > 20 µM.
